{"source": "patent US8198317B2", "about": "“Methylenedioxy phenolic compounds and their use to treat disease” (The Ohio State University Research Foundation, priority 2008, dated 2012)", "key": {"Individuals": {"tested_on": "Individuals", "test": "Treatment of inflammatory arthritis (Example 26)", "assay_type": "in vivo, human", "details": "oral, 6 months", "from_the_text": "Individuals with rheumatoid arthritis, psoriatic arthritis and systemic lupus erythematosis suffer from recurrent bouts of inflammatory arthritis. They are usually on treatments such as non-steroidal agents such as cyclooxygenase inhibitors, anti-TNFα treatments and other types of immunotherapy. In addition to these treatments they will also receive an acceptable dose of a composition comprising a compound of the present invention in an acceptable carrier orally chronically for durations in excess of 6 months. In one study, 3,4-methylenedioxy-6-nitrophenyl acetate (INV 75) is administered to these individuals. The patients undergo an assessment of joint pains and inflammatory markers such as C-reactive protein (CRP) and erythrocyte sedimentation rate."}, "[1]": {"tested_on": "Watanabe Heritable Hyperlipidemic Rabbits (WHHL)", "test": "MRI of abdominal aortic wall volume in WHHL rabbits", "assay_type": "in vivo, rabbit", "method": "In vivo experiments on hypercholesterolemic rabbits (Watanabe Heritable Hyperlipidemic Rabbits, WHHL) were performed in 6 rabbits treated with INV-75. Four rabbits served as controls.\nAnimal Model: WHHL rabbits weighing approximately 2 kg at 2 months were purchased from Brown Family in Alabama and housed in the institutional Laboratory Animal Center. Rabbits at the age of 6 months were used for all experiments. Rabbits were allowed free access to water and were fed a high cholesterol chow (2% cholesterol) from Harlan Tekad TD 7251. The animal care and experimental protocols were in accordance with nationally approved guidelines. The protocol that the rabbits were subjected to is outlined in FIG. 7. INV-75 was dissolved in 90% ethanol and sprayed on the high fat chow. The diet-drug mixture was then vacuum dried overnight to remove ethanol and then used to feed rabbits.\nEach animal underwent three MRI studies: the first one prior to high fat feeding (baseline prior to drug administration); the second at the mid-point of drug therapy; and the final study after 12 weeks of drug therapy (FIG. 7). […] At the end of the study, all animals underwent an MRI study for plaque volume quantification. […]\nHigh-resolution non-invasive MRI served to assess the degree of atherosclerosis before and after the corresponding treatments. Atherosclerotic plaque in the abdominal aorta of WHHL rabbits was analyzed by in vivo MRI scans at the indicated time points (FIG. 7). […] Plaque burden was determined by manually tracing the external elastic lamina (EEM) and the luminal border (L) and determining the area within each boundary using Siemens Viewer software. Slice volume (V) was calculated as V=(EEM-L)*4.0 and total wall volume per animal was calculated using the formula TWV=Σ[(EEM-L)*4] and expressed in mm^3. TWVs for each animal at each time point were normalized for varying numbers of readable slices with the formula NWV=(TWV/n)*m; n=number of slices readable in the individual animal and m=mean number of slices readable in all animals over all time points. […]"}, "[2]": {"tested_on": "New Zealand White rabbits", "test": "MRI assessment of atherosclerosis in balloon denuded NZW rabbits", "assay_type": "in vivo, rabbit", "method": "Animal Model: 15 male New Zealand White rabbits (Charles River, Mass.) were fed with high fat diet (HFD) (Harlan Teklad rabbit diet with 0.5% cholesterol, TD 87251). After 4 weeks of high fat diet, rabbits were randomized into three different treatment groups, normal control (n=5), lipoic acid (100 mg/kg/day) (n=5), INV 70-65 (100 mg/kg/day) (n=5). These drugs were administered to the animals via their chow by mixing the drugs with the high fat diet. A fixed amount of chow and drugs admixed in the chow were fed to all animals every day after carefully calculating food intake in each rabbit. Drugs were dissolved in 100% ethanol and sprayed onto the diet and kept under vacuum to let ethanol evaporate overnight. Two (2) weeks after drug or control admixed HFD, all rabbits underwent aortic balloon denudation surgeries followed by 12 weeks of continued administration of drug or controls admixed with HFD. FIG. 29 provides an outline of the experimental design.\nMRI experiments were conducted at two time points: 1 week and 12 weeks after the balloon denudation procedure (FIG. 29). […] MR images were analyzed using a Siemens Leonardo Workstation (Siemens Healthcare Inc. Germany).\nTo assess the different rates of atherosclerosis plaque progression for each rabbit group, the aortic wall was identified in the pre-contrast images at both MRI time points. […] To account for the variable number of slices, for each rabbit a normalized aortic wall volume was calculated.\nTo assess plaque neovasculature progression in the different treatment groups, only the 12 weeks post balloon denudation MR images were used. […] The signal to noise ratio (SNR) for each slice was calculated as the mean signal obtained from the vessel wall divided by the standard deviation of the noise from a region outside the body. A ratio of the SNR enhancement for each rabbit was obtained by dividing the post and pre contrast calculated SNRs."}}, "data": [{"smiles": "CC(=O)Oc1cc2c(cc1[N+](=O)[O-])OCO2", "note": "[INV-75, 3,4-methylenedioxy-6-nitrophenyl acetate]", "values": [{"measurement": "joint pains and markers of inflammation", "setting": "Individuals", "result": "marked improvement"}, {"measurement": "wall volume, abdominal aorta, MRI", "setting": "[1]; 12 weeks", "result": 0.37, "unit": "cm^3"}, {"measurement": "Mean normalized wall volume (NWV), abdominal aorta, MRI", "setting": "[1]; baseline, prior to supplementation", "result": 0.24, "unit": "cm^3"}, {"measurement": "mean plaque volume, abdominal aorta, MRI", "setting": "[1]; study midpoint, 6 weeks of supplementation", "result": 0.35, "unit": "cm^3"}]}, {"smiles": "O=C(CCCCC1CCSS1)Oc1ccc2c(c1)OCO2", "note": "(stereo not drawn) [INV-7065, 3,4-Methylenedioxy phenyl lipoate]", "values": [{"measurement": "gadolinium enhancement of the aorta", "setting": "[2]; compared to controls and lipoic acid treatment", "result": "reduction"}, {"measurement": "plaque burden by MRI", "setting": "[2]; high fat diet, 100 mg/kg/day, 12 weeks", "result": "marked attenuation"}]}]}
